Square brackets hold non-standard residues; d marks the D form. Ends that are not written are not given here. Pra = C#CC[C@H](N)C(=O)O; Az8 = not defined here
How the values were obtained:
[1] = system: Akt1-S473E-T308P; experiment: [γ-32P]-ATP kinase activity assay, inhibition of Akt1-S473E-T308P; type: biochemical, H. sapiens; settings: 120 μM compound, 30 minutes at room temperature, in the absence and presence of the conjugated small molecule inhibitor
Method: Peptide is SEQ ID NO:22. Kinase reactions were carried out with 120 μM of each compound for 30 minutes at room temperature. The amount of phosphorylated substrate was quantitated by liquid scintillation counting and the % Akt1-S473E-T308P activity determined based on the amount of product formed in the control kinase reaction. The values shown are the mean value of three experiments and the error bars are the standard deviation.
The activity of Akt-S473E-T308P was characterized by a [γ-^32P]-ATP kinase activity assay measuring the incorporation of ^32P into biotinylated crosstide peptide (Anaspec). Briefly, reactions containing 80 ng of Akt-S473E-T308P, 50 μM Bio-crosstide, and varying concentrations of ATP/[γ-^32P]-ATP (specific activity=1.5 mCi/mL).
(§1) Candidate sequences were scaled up and tested for their ability to inhibit Akt1-S473E-T308P activity. […] This peptide was re-synthesized as a C-terminal biotinylated peptide and used as the anchor in the biligand screen.

[2] = system: Akt1-S473E-T308P; experiment: Phosphorylation of biotinylated anchor peptide in standard kinase reaction; type: biochemical, H. sapiens; settings: 30 min at room temperature, liquid scintillation counting
Method: Biotinylated peptides were incubated in a standard kinase reaction mixture for 30 min. at room temperature. A portion of the reaction was spotted onto a SAM2 Biotin Capture Membrane (Promega), washed, and analyzed by liquid scintillation counting. The total counts per minute (cpm) are shown for the anchor peptide (VFYRL-Bio(1) (SEQ ID NO:22) and VFYRL-Bio(2) (SEQ ID NO:22)) as well as the standard substrate peptide (Bio-Crosstide). The number in parentheses identifies the diastereomer based on retention time in RP-HPLC.
as §1

[3] = molecular target: Akt-S473E; experiment: ELISA with immobilized Akt-S473E, relative affinity of biotinylated ligands; type: binding, H. sapiens; settings: read-out: binding affinity for Akt
Method: Akt-S473E was immobilized on Ni-NTA plates and incubated with varying concentrations of biotinylated peptide. All values were normalized to the binding observed at saturation.
The affinity of the anchor ligand, biligand, and triligand developed in Example 1 was determined by ELISA with immobilized Akt-S473E.
3 μg of Akt-S473E was added to each well in a HisSorb Ni-NTA plate (Qiagen) in 50 μL of ELISA blocking buffer (25 mM Tris-Cl (pH=7.5), 150 mM NaCl, 10 mM MgCl2, 0.1% (v/v) Tween-20, and 4 mg/mL BSA). 50 μL of imidazole blocking buffer (25 mM Tris-Cl (pH=7.5), 150 mM NaCl, 10 mM MgCl2, 0.1% (v/v) Tween-20, 100 mM imidazole, and 4 mg/mL BSA) was added to the control wells. After 18 hours at 4° C., the wells were washed with ELISA blocking buffer and 50 μL of each ligand dilution was added in ELISA blocking buffer. The ligands were bound at 4° C. for 120 minutes followed by three washed in ELISA blocking buffer. 50 μL of horseradish peroxidase-conjugated streptavidin (SA-HRP, Thermo) was added (1:5000 dilution in ELISA blocking buffer) and incubated for 70 minutes at 4° C. […] 50 μL of peroxidase substrate (KPL) was added to generate the final signal which was quenched in 1 M H2SO4 and quantitated on a 96-well plate reader at X=450 nm. The Net A450 was calculated by subtracting the A450 of each blank well (No Akt-S473E) from the experimental well. […]

[4] = system: Akt1; experiment: Specificity ELISA, immobilized ligand probed with His-tagged kinases; design: species or system H. sapiens; settings: A450 normalized to Akt1-S473E binding; kinase panel
Method: (§2) Biotinylated ligand was immobilized on Streptavidin plates and probed with 25 nM His-tagged kinase followed by anti-Histag antibody-HRP conjugate. Values represent the mean A450 obtained from three experiments after normalization to Akt1-S473E binding. The error bars show the standard error.
(§3) The specificity of the anchor ligand, biligand, and triligand developed in Example 1 was analyzed using a battery of protein kinases. […] Akt1-S473E was expressed and purified as described above.
(§4) The relative affinity of each kinase was determined by probing with an anti-His6 antibody and normalizing the response to Akt1-S473E. All proteins were diluted in Akt blocking buffer to a final concentration of 24 nM prior to use. Ligands were diluted in Akt blocking buffer to a final concentration of 2.5 μM prior to use. 100 μL of each ligand (250 pmol) was added to each well of a HBC streptavidin-coated 96-well plate. The ligands were bound at 4° C. for 1 hour followed by addition of D-biotin to a final concentration of 500 μM. After 10 minutes at 4° C., the wells were washed three times with Akt blocking buffer and blocked overnight in 5% non-fat milk.
(§5) The wells were washed three times in Akt blocking buffer and 50 μL of active protein was applied to each well. After binding for 120 minutes at 4° C., the wells were washed three times in Akt blocking buffer to remove unbound protein. 50 μL of horseradish peroxidase-conjugated Anti-His6 antibody was added at a dilution of 1:100 (His Probe (H-3) HRP conjugate, Santa Cruz Biotechnology). The antibody-HRP conjugate was incubated for 60 minutes and the wells were washed 3 times in TBST and once in TBS. 50 μL of peroxidase substrate (KPL) was added and the resulting color change was quenched with 50 μL 1 M H2SO4. The A450 measured on a 96-well plate reader. […] The mean value for the triplicates was calculated and plotted and the error bars were generated from the standard error of the mean (GraphPad Prism).

[5] = molecular target: T1, GSK3β (Homo sapiens, UniProt P49841); experiment: as above; settings: A450 normalized to Akt1-S473E binding
T1 construct: a set of His-tagged active protein kinase domains from the AGC family; purchased Invitrogen
Method: as §2, §3, §4, §5

[6] = molecular target: T2, E17K mutant Akt1 PH Domain (Homo sapiens, UniProt P31749, E17K); experiment: Streptavidin-agarose pulldown assay; type: binding; settings: Western blot, relative protein band sizes
T2 construct: The first 124 N-terminal amino acids from full length Akt1 were used as the PH Domain DNA; thrombin cleavage site (C); 6-His (C); made in house; host or cells: E. coli
Method: (§6) These resins were then incubated with either (a) WT or (b) E17K Mutant PHD to measure the amount of pulldown for each potential anchor ligand. Peptide eefef is SEQ ID NO:5. Peptide yleaf is SEQ ID NO:16.
(§7) Pulldown assays were done on Streptavidin Agarose resin from Novachem. The resin was incubated with N-terminally biotinylated anchor peptide candidates identified via the ClusterLigand sequence analysis. The anchor candidate coated beads were then incubated with both wildtype and mutant protein to compare the selectivity of the ligands, as well as the binding ability.
(§8) Assays were done with 50 uL of Streptavidin-Agarose slurry (25 uL resin) in Spin-X tubes. Resin was aliquotted into 14 tubes—six ligands plus a blank tested against two different proteins, then washed three times with 1×TBS with 0.25% IPEGAL detergent added. Each set of tubes was incubated with 170 nmol of the appropriate biotinylated ligand in 200 uL 1×HEPES (10 mM HEPES, 150 mM NaCl, 0.25% IPEGAL, 5 mM EDTA) or plain buffer for the blank. Ligand binding was done for one hour at room temperature, then resin was washed three times with 1×HEPES. Resin was blocked with 1×HEPES with 5% BSA for two hours. The anchor-coated resin was then incubated with either wildtype or mutant expressed PH domain protein overnight (˜16 hours) in cold room (4° C.). Protein was spun out of tubes, and the resin was washed three times with high salt TBS, then incubated for five minutes in the high salt buffer. The resin was then washed three times with the 1×TBS buffer, and spun out to dry completely. 50 uL of denaturing SDS gel loading buffer with 10% B-mercaptoethanol was added to the samples and they were incubated at 95° C. for ten minutes to denature. The gel loading buffer was spun out of the Spin-X tubes and the samples were run on an Any KD BioRad Premade Gel under denaturing conditions. Gel was transferred to nitrocellulose membrane and western blotted. Proteins were detected using rabbit polyclonal anti-Akt1 antibody (ab64148, Abcam) and an anti-rabbit HRP conjugated secondary anti-body then developed with West Pico Chemilluminescent substrate (Pierce).

[7] = molecular target: T3, wildtype Akt1 PH Domain (Homo sapiens, UniProt P31749); experiment: Streptavidin-agarose pulldown assay; type: binding; settings: Western blot, relative protein band sizes
T3 construct: The first 124 N-terminal amino acids from full length Akt1 were used as the PH Domain DNA; thrombin cleavage site (C); 6-His (C); made in house; host or cells: E. coli
Method: as §6, §7, §8

[8] = system: Akt; experiment: Immunoprecipitation of Akt from OVCAR3 cell lysates with immobilized ligands; type: binding; settings: EGF and insulin induced or control, Western blot with pan-Akt antibody
Method: A representative 12% gel stained with Coomassie and imaged. Lane 1: Lysate, Lane 2: Anchor resin, Lane 3: Biligand resin, Lane 4: Triligand resin, Lane 5: 5G3 mAb resin.
After 18 hours at 4° C., resins were washed exhaustively, eluted with SDS-PAGE sample buffer, and analyzed by Western blotting. 1. Blank resin, 2. Anchor, 3. Biligand, 4. Triligand, 5. [5G3] mAb, L. lysate.
For the IP experiments, the anchor, biligand, and triligands were immobilized on streptavidin-agarose, and each resin was panned with OVCAR3 cell lysates obtained from untreated cells or cells stimulated with a combination of epidermal growth factor (EGF) and insulin.
OVCAR3 cells were grown in RPMI-1640 media containing 10% fetal bovine serum, penicillin, and streptomycin. Passage 4 cells were grown to ˜60% confluence and treated with insulin and EGF at final concentration of 10 μg/mL and 20 ng/mL respectively (induced) or mock treated (control). Cells were grown for an additional 24 hours and then lysed with lysis buffer (10 mM Tris-Cl (pH=7.5), 100 mM NaCl, 1% (v/v) Triton X-100, 0.1% SDS (w/v), 0.5% deoxycholate, 1 mM DTT, 1 mM EDTA, 1× PhosStop phosphatase inhibitors (Roche), 1× Complete protease inhibitors (Roche). Cell lysate protein concentrations were determined by Bradford assays. […]

Akt1, sequence (P31749 150-408 limits assumed): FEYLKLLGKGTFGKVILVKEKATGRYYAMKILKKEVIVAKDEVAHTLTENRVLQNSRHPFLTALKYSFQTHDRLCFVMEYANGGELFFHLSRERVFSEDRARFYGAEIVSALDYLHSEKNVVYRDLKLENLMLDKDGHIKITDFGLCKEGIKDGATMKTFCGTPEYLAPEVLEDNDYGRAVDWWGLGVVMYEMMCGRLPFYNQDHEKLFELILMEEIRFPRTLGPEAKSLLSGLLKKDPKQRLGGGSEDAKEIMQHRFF
T3 sequence (P31749 1-124): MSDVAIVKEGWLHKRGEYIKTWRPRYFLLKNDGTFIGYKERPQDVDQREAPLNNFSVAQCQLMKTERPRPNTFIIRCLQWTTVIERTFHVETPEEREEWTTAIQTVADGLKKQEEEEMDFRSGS
T1 sequence (P49841 56-340 limits assumed, species assumed): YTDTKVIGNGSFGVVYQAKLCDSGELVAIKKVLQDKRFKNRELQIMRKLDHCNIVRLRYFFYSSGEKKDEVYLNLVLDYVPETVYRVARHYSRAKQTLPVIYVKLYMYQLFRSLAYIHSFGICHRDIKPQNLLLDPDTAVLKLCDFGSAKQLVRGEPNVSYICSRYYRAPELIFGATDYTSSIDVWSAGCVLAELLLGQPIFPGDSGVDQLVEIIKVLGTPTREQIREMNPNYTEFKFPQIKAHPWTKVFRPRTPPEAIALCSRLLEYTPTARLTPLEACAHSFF
Akt1-S473E-T308P, sequence (P31749 150-449 limits assumed, stated change not applied): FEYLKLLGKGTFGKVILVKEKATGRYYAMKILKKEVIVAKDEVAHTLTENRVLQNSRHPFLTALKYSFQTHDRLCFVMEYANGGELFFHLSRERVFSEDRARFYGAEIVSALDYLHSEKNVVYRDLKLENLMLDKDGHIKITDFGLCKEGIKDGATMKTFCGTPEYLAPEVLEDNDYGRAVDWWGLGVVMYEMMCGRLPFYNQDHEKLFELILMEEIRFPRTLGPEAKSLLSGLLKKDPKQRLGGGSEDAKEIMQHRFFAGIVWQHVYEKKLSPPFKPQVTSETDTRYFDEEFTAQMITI
T2 sequence (P31749 1-124 E17K): as the sequence (P31749 1-124) above, with E17K counted along it
Akt-S473E, sequence (P31749 144-449 limits assumed, stated change not applied): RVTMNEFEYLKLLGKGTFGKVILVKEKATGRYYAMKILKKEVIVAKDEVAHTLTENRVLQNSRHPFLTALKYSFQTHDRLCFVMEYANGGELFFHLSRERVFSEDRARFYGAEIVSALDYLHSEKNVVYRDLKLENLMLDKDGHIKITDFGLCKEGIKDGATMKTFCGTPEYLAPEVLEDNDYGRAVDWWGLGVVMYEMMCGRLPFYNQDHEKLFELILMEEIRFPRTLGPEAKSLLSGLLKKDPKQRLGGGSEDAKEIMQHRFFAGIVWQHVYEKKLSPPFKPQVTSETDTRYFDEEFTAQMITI

Az8-VFYRLGY-CONH2 [anchor ligand]
inhibition of Akt1 [1]: ~95% | phosphorylation by Akt in vitro [2]: not phosphorylated | Kd [3]: > 25 µM | specificity / selectivity for Akt1 [4]: very specific for the Akt1 protein | binding to GSK3β [5]: only modest binding

eefef ([dE][dE][dF][dE][dF]; not fully specified (N-terminus); printed as eefef; also: biotinylated, position not confirmed)
pulldown of E17K mutant PH Domain [6]: the least pulldown for the mutant protein | pulldown of wildtype PH Domain [7]: the only pulldown of the wildtype protein

biligand: anchor ligand Az8-VFYRLGY linked by 1,4-triazole to secondary ligand Pra-FWFLRG-CONH2; biotinylated for assays (peptide 2 [Pra]FWFLRG-NH2; not fully specified (N-terminus, C-terminus, bridges); reading uncertain; also: biotinylated for assays, triazole at chain B 1 to a chain's N-terminus)
specificity / selectivity for Akt1 [4]: reduced selectivity | binding to GSK3β [5]: significant cross-reactivity | immunoprecipitation of Akt [8]: increased affinity

yleaf ([dY][dL][dE][dA][dF]; not fully specified (N-terminus); printed as yleaf; also: biotinylated, position not confirmed)
pulldown of E17K mutant PH Domain [6]: the greatest binding to the mutant | pulldown of wildtype PH Domain [7]: the least binding to the wildtype

Source: patent US12480950B2, “AKT-specific capture agents, compositions, and methods of using and making” (California Institute of Technology, priority 2011, dated 2025)
